# Experimental data reported in PubChem BioAssay AID1963430 (Molecular Pharmacology Branch, DTP, NCI, 2024).
# Where “and” joins values, the source holds several entries; their conditions need not be identical. Equal entries are not always repeated.
# Tested on: 521955-158-R2-J5-PDC complex spheroid growth, % test/control
# Test: Anticancer human tumor 521955-158-R2-J5-PDC patient-derived pancreatic carcinoma cell line growth inhibition [Asc]
# Conditions: for IC50: curve of first compound; for viability, T/C: stronger effect = lower value
# Method in brief: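 Spheroid model: tumor line + HUVEC + hMSC. Single agents and combinations; top conc. at/near clinical Cmax (10 microM if undetermined), half-log dilutions. DMSO stocks at 800-fold test concentration.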
# [1] = second compound 0.1 µM, first compound 0.00316 µM
# [2] = second compound 0.1 µM, first compound 0.01 µM
# [3] = second compound 0.1 µM, first compound 0.0316 µM
# [4] = second compound 0.1 µM, first compound 0.1 µM
# [5] = second compound 0.1 µM, first compound 0.316 µM
# [6] = second compound 0.1 µM, first compound 1 µM
# [7] = second compound 0.316 µM, first compound 0.00316 µM
# [8] = second compound 0.316 µM, first compound 0.01 µM
# [9] = second compound 0.316 µM, first compound 0.0316 µM
# [10] = second compound 0.316 µM, first compound 0.1 µM
# [11] = second compound 0.316 µM, first compound 0.316 µM
# [12] = second compound 0.316 µM, first compound 1 µM
# [13] = second compound 1 µM, first compound 0.00316 µM
# [14] = second compound 1 µM, first compound 0.01 µM
# [15] = second compound 1 µM, first compound 0.0316 µM
# [16] = second compound 1 µM, first compound 0.1 µM
# [17] = second compound 1 µM, first compound 0.316 µM
# [18] = second compound 1 µM, first compound 1 µM
# [19] = second compound 3.16 µM, first compound 0.00316 µM
# [20] = second compound 3.16 µM, first compound 0.01 µM
# [21] = second compound 3.16 µM, first compound 0.0316 µM
# [22] = second compound 3.16 µM, first compound 0.1 µM
# [23] = second compound 3.16 µM, first compound 0.316 µM
# [24] = second compound 3.16 µM, first compound 1 µM
# [25] = second compound 10 µM, first compound 0.00316 µM
# [26] = second compound 10 µM, first compound 0.01 µM
# [27] = second compound 10 µM, first compound 0.0316 µM
# [28] = second compound 10 µM, first compound 0.1 µM
# [29] = second compound 10 µM, first compound 0.316 µM
# [30] = second compound 10 µM, first compound 1 µM
# 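Note: spheroids exposed to agents for 7 days before readout.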
# 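Throughout, for viability, T/C: 100% = DMSO vehicle control viability.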
structure (smiles),measurement,setting,value
CNC(C)C(=O)NC1CN(S(=O)(=O)c2cccc(S(=O)(=O)N3CCC4CCC(C(=O)NC(c5ccccc5)c5ccccc5)N4C(=O)C(NC(=O)C(C)NC)C3)c2)CCC2CCC(C(=O)NC(c3ccccc3)c3ccccc3)N2C1=O (stereo unspecified) + Cc1c(S(C)(=O)=O)c(-c2cc(F)cc(N3CCN(c4ccc(NS(=O)(=O)c5ccc(NC(CCN6CCC(C(=O)OCCCP(=O)(O)O)CC6)CSc6ccccc6)c(S(=O)(=O)C(F)(F)F)c5)cc4)CC3)c2)c(-c2ccc(Cl)cc2)n1C(C)C,IC50,second compound 0.1 µM,> 1000 nM
same,IC50,second compound 0.316 µM,> 1000 nM
same,IC50,second compound 1 µM,> 1000 nM
same,IC50,second compound 3.16 µM,> 1000 nM
same,IC50,second compound 10 µM,> 1000 nM
same,"viability, T/C",[1],75.6%
same,"viability, T/C",[2],64%
same,"viability, T/C",[3],57.1%
same,"viability, T/C",[4],76.4%
same,"viability, T/C",[5],64%
same,"viability, T/C",[6],67.9%
same,"viability, T/C",[7],92.7%
same,"viability, T/C",[8],86.7%
same,"viability, T/C",[9],89.3%
same,"viability, T/C",[10],74.6%
same,"viability, T/C",[11],91.1%
same,"viability, T/C",[12],87.6%
same,"viability, T/C",[13],97.2%
same,"viability, T/C",[14],88.4%
same,"viability, T/C",[15],71.8%
same,"viability, T/C",[16],77.8%
same,"viability, T/C",[17],59.8%
same,"viability, T/C",[18],75.7%
same,"viability, T/C",[19],97.7%
same,"viability, T/C",[20],75.9%
same,"viability, T/C",[21],47.5%
same,"viability, T/C",[22],80.6%
same,"viability, T/C",[23],65.8%
same,"viability, T/C",[24],60.4%
same,"viability, T/C",[25],192%
same,"viability, T/C",[26],171%
same,"viability, T/C",[27],180%
same,"viability, T/C",[28],149%
same,"viability, T/C",[29],197%
same,"viability, T/C",[30],121%
NC(=O)C(=Cn1cnc(-c2cc(C(F)(F)F)cc(C(F)(F)F)c2)n1)c1cncnc1,"viability, T/C",compound 0.000949 µM,68.4% and 84.3% and 83.5%
same,"viability, T/C",compound 0.003 µM,42.6% and 54.8% and 95.5%
same,"viability, T/C",compound 0.00949 µM,37.3% and 48.3% and 47.9%
same,"viability, T/C",compound 0.03 µM,28.6% and 36.7% and 57.8%
same,"viability, T/C",compound 0.0949 µM,27.8% and 32.6% and 43.7%
same,"viability, T/C",compound 0.3 µM,23.8% and 48% and 30.4%
CCN1CCN(Cc2ccc(Nc3ncc(F)c(-c4cc(F)c5nc(C)n(C(C)C)c5c4)n3)nc2)CC1 + CNC(C)C(=O)NC1CN(S(=O)(=O)c2cccc(S(=O)(=O)N3CCC4CCC(C(=O)NC(c5ccccc5)c5ccccc5)N4C(=O)C(NC(=O)C(C)NC)C3)c2)CCC2CCC(C(=O)NC(c3ccccc3)c3ccccc3)N2C1=O,IC50,second compound 0.01 µM,> 1000 nM
same,IC50,second compound 0.0316 µM,> 1000 nM
same,IC50,second compound 0.1 µM,> 1000 nM
same,IC50,second compound 0.316 µM,> 1000 nM
same,IC50,second compound 1 µM,> 1000 nM
same,"viability, T/C","second compound 0.01 µM, first compound 0.00316 µM",89.3%
same,"viability, T/C","second compound 0.01 µM, first compound 0.01 µM",85.6%
same,"viability, T/C","second compound 0.01 µM, first compound 0.0316 µM",71.2%
same,"viability, T/C","second compound 0.01 µM, first compound 0.1 µM",61.6%
same,"viability, T/C","second compound 0.01 µM, first compound 0.316 µM",73.2%
same,"viability, T/C","second compound 0.01 µM, first compound 1 µM",94.8%
same,"viability, T/C","second compound 0.0316 µM, first compound 0.00316 µM",87.8%
same,"viability, T/C","second compound 0.0316 µM, first compound 0.01 µM",106%
same,"viability, T/C","second compound 0.0316 µM, first compound 0.0316 µM",82.5%
same,"viability, T/C","second compound 0.0316 µM, first compound 0.1 µM",84.1%
same,"viability, T/C","second compound 0.0316 µM, first compound 0.316 µM",83.6%
same,"viability, T/C","second compound 0.0316 µM, first compound 1 µM",102%
same,"viability, T/C",[1],97.6%
same,"viability, T/C",[2],91.7%
same,"viability, T/C",[3],76.6%
same,"viability, T/C",[4],76.9%
same,"viability, T/C",[5],86.7%
same,"viability, T/C",[6],96.8%
same,"viability, T/C",[7],76.3%
same,"viability, T/C",[8],76.8%
same,"viability, T/C",[9],83.5%
same,"viability, T/C",[10],66.6%
same,"viability, T/C",[11],69.7%
same,"viability, T/C",[12],105%
same,"viability, T/C",[13],95.5%
same,"viability, T/C",[14],85.1%
same,"viability, T/C",[15],64.8%
same,"viability, T/C",[16],57.7%
same,"viability, T/C",[17],69.9%
same,"viability, T/C",[18],103%
CCN1CCN(Cc2ccc(Nc3ncc(F)c(-c4cc(F)c5nc(C)n(C(C)C)c5c4)n3)nc2)CC1 + Cc1c(S(C)(=O)=O)c(-c2cc(F)cc(N3CCN(c4ccc(NS(=O)(=O)c5ccc(NC(CCN6CCC(C(=O)OCCCP(=O)(O)O)CC6)CSc6ccccc6)c(S(=O)(=O)C(F)(F)F)c5)cc4)CC3)c2)c(-c2ccc(Cl)cc2)n1C(C)C,IC50,second compound 0.1 µM,3.16 nM
same,IC50,second compound 0.316 µM,3.16 nM
same,IC50,second compound 1 µM,> 1000 nM
same,IC50,second compound 3.16 µM,> 1000 nM
same,IC50,second compound 10 µM,> 1000 nM
same,"viability, T/C",[1],86.2%
same,"viability, T/C",[2],34.5%
same,"viability, T/C",[3],42.2%
same,"viability, T/C",[4],48.3%
same,"viability, T/C",[5],73%
same,"viability, T/C",[6],87.6%
same,"viability, T/C",[7],69%
same,"viability, T/C",[8],61%
same,"viability, T/C",[9],41.4%
same,"viability, T/C",[10],46.5%
same,"viability, T/C",[11],77.7%
same,"viability, T/C",[12],92.8%
same,"viability, T/C",[13],77.5%
same,"viability, T/C",[14],56.5%
same,"viability, T/C",[15],59.6%
same,"viability, T/C",[16],50.7%
same,"viability, T/C",[17],65.6%
same,"viability, T/C",[18],114%
same,"viability, T/C",[19],58%
same,"viability, T/C",[20],50.1%
same,"viability, T/C",[21],43.8%
same,"viability, T/C",[22],61.4%
same,"viability, T/C",[23],74.3%
same,"viability, T/C",[24],88.4%
same,"viability, T/C",[25],171%
same,"viability, T/C",[26],111%
same,"viability, T/C",[27],120%
same,"viability, T/C",[28],179%
same,"viability, T/C",[29],162%
same,"viability, T/C",[30],142%
Cc1nc(N2CCC3(CC2)COC(C)C3N)c(CO)nc1Sc1ccnc(N)c1Cl (stereo unspecified) + CNC(C)C(=O)NC1CN(S(=O)(=O)c2cccc(S(=O)(=O)N3CCC4CCC(C(=O)NC(c5ccccc5)c5ccccc5)N4C(=O)C(NC(=O)C(C)NC)C3)c2)CCC2CCC(C(=O)NC(c3ccccc3)c3ccccc3)N2C1=O,IC50,second compound 0.01 µM,613 nM
same,IC50,second compound 0.0316 µM,888 nM
same,IC50,second compound 0.1 µM,271 nM
same,IC50,second compound 0.316 µM,> 3000 nM
same,IC50,second compound 1 µM,1480 nM
same,"viability, T/C","second compound 0.01 µM, first compound 0.00949 µM",86.7%
same,"viability, T/C","second compound 0.01 µM, first compound 0.03 µM",67.7%
same,"viability, T/C","second compound 0.01 µM, first compound 0.0949 µM",64.6%
same,"viability, T/C","second compound 0.01 µM, first compound 0.3 µM",49%
same,"viability, T/C","second compound 0.01 µM, first compound 0.949 µM",48.9%
same,"viability, T/C","second compound 0.01 µM, first compound 3 µM",46.2%
same,"viability, T/C","second compound 0.0316 µM, first compound 0.00949 µM",83.6%
same,"viability, T/C","second compound 0.0316 µM, first compound 0.03 µM",72%
same,"viability, T/C","second compound 0.0316 µM, first compound 0.0949 µM",66.7%
same,"viability, T/C","second compound 0.0316 µM, first compound 0.3 µM",46%
same,"viability, T/C","second compound 0.0316 µM, first compound 0.949 µM",50.4%
same,"viability, T/C","second compound 0.0316 µM, first compound 3 µM",52.6%
same,"viability, T/C","second compound 0.1 µM, first compound 0.00949 µM",84.3%
same,"viability, T/C","second compound 0.1 µM, first compound 0.03 µM",68.1%
same,"viability, T/C","second compound 0.1 µM, first compound 0.0949 µM",58.9%
same,"viability, T/C","second compound 0.1 µM, first compound 0.3 µM",43%
same,"viability, T/C","second compound 0.1 µM, first compound 0.949 µM",52.1%
same,"viability, T/C","second compound 0.1 µM, first compound 3 µM",46.9%
same,"viability, T/C","second compound 0.316 µM, first compound 0.00949 µM",93.3%
same,"viability, T/C","second compound 0.316 µM, first compound 0.03 µM",65.3%
same,"viability, T/C","second compound 0.316 µM, first compound 0.0949 µM",64.4%
same,"viability, T/C","second compound 0.316 µM, first compound 0.3 µM",51.9%
same,"viability, T/C","second compound 0.316 µM, first compound 0.949 µM",53.9%
same,"viability, T/C","second compound 0.316 µM, first compound 3 µM",51.6%
same,"viability, T/C","second compound 1 µM, first compound 0.00949 µM",76.7%
same,"viability, T/C","second compound 1 µM, first compound 0.03 µM",59.3%
same,"viability, T/C","second compound 1 µM, first compound 0.0949 µM",62.2%
same,"viability, T/C","second compound 1 µM, first compound 0.3 µM",50.9%
same,"viability, T/C","second compound 1 µM, first compound 0.949 µM",57.2%
same,"viability, T/C","second compound 1 µM, first compound 3 µM",45%
